Molecular target: GSK 3α (Homo sapiens (Human), UniProt P49840)
Assay: GSK 3α enzyme inhibition (Method 2), Z-LYTE FRET
Assay type: biochemical
Details: read-out: IC50 Values for Enzyme Inhibition GSK3α
Protocol: The enzyme inhibitory activities of compounds disclosed herein are determined by FRET using synthetic peptides labelled with both donor and acceptor fluorophores (Z-LYTE, Invitrogen Ltd., Paisley, UK).
The following two assay variants can be used for determination of GSK 3α inhibition.
The inhibitory activities of compounds of the invention against the GSK 3α enzyme isoform (Invitrogen), are evaluated by determining the level of activation/phosphorylation of the target peptide. The GSK3-α protein (500 ng/mL, 2.5 μL) is mixed with the test compound (2.5 μL at either 4 μg/mL, 0.4 μg/mL, 0.04 μg/mL, or 0.004 μg/mL) for 2 hr at RT. The FRET peptide (8 μM, 2.5 μL), which is a phosphorylation target for GSK3α, and ATP (40 μM, 2.5 μL) are then added to the enzyme/compound mixture and the resulting mixture incubated for 1 hr. Development reagent (protease, 5 μL) is added for 1 hr prior to detection in a fluorescence microplate reader (Varioskan® Flash, ThermoFisher Scientific).
In all cases, the site-specific protease cleaves non-phosphorylated peptide only and eliminates the FRET signal. Phosphorylation levels of each reaction are calculated using the ratio of coumarin emission (donor) over fluorescein emission (acceptor), for which high ratios indicate high phosphorylation and low ratios indicate low phosphorylation levels.
This method follows the same steps as Method 1 above, but utilises a shorter period of mixing of the test compound (105 minutes instead of 2 hours) with the GSK3-α protein. In addition, the concentrations of test compound employed are either 10 μg/mL, 1 μg/mL, 0.1 μg/mL, or 0.01 μg/mL

Chain of GSK 3α (P49840 whole entry): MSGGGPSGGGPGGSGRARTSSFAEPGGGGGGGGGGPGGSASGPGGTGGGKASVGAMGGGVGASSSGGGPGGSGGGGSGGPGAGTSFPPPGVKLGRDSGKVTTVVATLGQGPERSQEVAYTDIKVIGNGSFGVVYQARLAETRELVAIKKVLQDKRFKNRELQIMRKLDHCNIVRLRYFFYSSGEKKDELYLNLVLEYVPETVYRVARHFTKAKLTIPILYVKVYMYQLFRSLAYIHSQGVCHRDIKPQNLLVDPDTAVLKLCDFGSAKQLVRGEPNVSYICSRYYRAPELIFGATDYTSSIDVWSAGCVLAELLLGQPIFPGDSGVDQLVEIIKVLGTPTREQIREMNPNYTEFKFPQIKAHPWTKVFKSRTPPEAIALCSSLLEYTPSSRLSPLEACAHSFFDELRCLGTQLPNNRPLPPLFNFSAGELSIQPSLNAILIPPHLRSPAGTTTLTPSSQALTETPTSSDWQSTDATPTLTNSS

| IC50 | Structure (SMILES) |
| --- | --- |
| 4.39 µM | COCCOCCOC[C@H](C)NC(=O)c1ccc(Nc2cc(Oc3ccc(NC(=O)Nc4cc(C(C)(C)C)cc(NS(C)(=O)=O)c4OC)c4ccccc34)ccn2)cc1OC [17(h), 4-[[4-[[4-[[5-tert-butyl-3-(methanesulfonamido)-2-methoxy-phenyl]carbamoylamino]-1-naphthyl]oxy]-2-pyridyl]amino]-2-methoxy-N-[(1S)-2-[2-(2-methoxyethoxy)ethoxy]-1-methyl-ethyl]benzamide] |
| 0.594 µM | COc1cc(Nc2nccc(Oc3ccc(NC(=O)Nc4cc(C(C)(C)C)cc(NS(C)(=O)=O)c4OC)c4ccccc34)n2)ccc1C(=O)NCCN1CCOCC1 [17(i), 4-[[4-[[4-[[5-tert-butyl-3-(methanesulfonamido)-2-methoxy-phenyl]carbamoylamino]-1-naphthyl]oxy]pyrimidin-2-yl]amino]-2-methoxy-N-(2-morpholinoethyl)benzamide] |
| 3.02 µM | COc1cc(Nc2cc(Oc3ccc(NC(=O)Nc4cc(C(C)(C)C)cc(NS(C)(=O)=O)c4OC)c4ccccc34)ccn2)ccc1C(=O)NCCN(C)CCO [17(ac), 4-[[4-[[4-[[5-tert-butyl-3-(methanesulfonamido)-2-methoxy-phenyl]carbamoylamino]-1-naphthyl]oxy]-2-pyridyl]amino]-N-[2-[2-hydroxyethyl(methyl)amino]ethyl]-2-methoxy-benzamide] |
| > 11.9 µM | COc1cc(Nc2cc(Oc3ccc(NC(=O)Nc4cc(C(C)(C)C)cc(NS(C)(=O)=O)c4OC)c4ccccc34)ccn2)ccc1C(=O)NCCN1C[C@@H](C)O[C@@H](C)C1 [17(c), 4-[[4-[[4-[[5-tert-butyl-3-(methanesulfonamido)-2-methoxy-phenyl]carbamoylamino]-1-naphthyl]oxy]-2-pyridyl]amino]-N-[2-[(2S,6R)yl]ethyl]-2-methoxy-benzamide] |
| 5.56 µM | COc1c(NC(=O)Nc2ccc(Oc3ccnc(Nc4ccc(OCCCN5CCOCC5)c(C#N)c4)c3)c3ccccc23)cc(C(C)(C)C)cc1NS(C)(=O)=O [Example 10, N-(5-(tert-Butyl)-3-(3-(4-((2-((3-cyano-4-(3-morpholinopropxy)phenyl)amino)pyridin-4-yl)oxy)naphthalen-1-yl)ureido)-2-methoxyphenyl)methanesulfonamide] |
| 0.14 µM | COc1c(NC(=O)Nc2ccc(Oc3ccnc(Nc4ccc(C(=O)O)cc4)c3)c3ccccc23)cc(C(C)(C)C)cc1NS(C)(=O)=O [17(t), 4-[[4-[[4-[[5-tert-butyl-3-(methanesulfonamido)-2-methoxy-phenyl]carbamoylamino]-1-naphthyl]oxy]-2-pyridyl]amino]benzoic acid] |
| 11.8 µM | COc1cc(Nc2cc(Oc3ccc(NC(=O)Nc4cc(C(C)(C)C)cc(NS(C)(=O)=O)c4OC)c4ccccc34)ccn2)ccc1C(=O)NCCN1CCC(F)(F)CC1 [17(al), 4-[[4-[[4-[[5-tert-butyl-3-(methanesulfonamido)-2-methoxy-phenyl]carbamoylamino]-1-naphthyl]oxy]-2-pyridyl]amino]-N-[2-(4,4-difluoro-1-piperidyl)ethyl]-2-methoxy-benzamide] |
| > 11.9 µM | COc1cc(Nc2cc(Oc3ccc(NC(=O)Nc4cc(C(C)(C)C)cc(NS(C)(=O)=O)c4OC)c4ccccc34)ccn2)ccc1C(=O)NCC(C)(C)N1CCOCC1 [17(n), 4-[[4-[[4-[[5-tert-butyl-3-(methanesulfonamido)-2-methoxy-phenyl]carbamoylamino]-1-naphthyl]oxy]-2-pyridyl]amino]-2-methoxy-N-(2-methyl-2-morpholino-propyl)benzamide] |
| > 12.1 µM | COc1cc(Nc2cc(Oc3ccc(NC(=O)Nc4cc(C(C)(C)C)cc(NS(C)(=O)=O)c4OC)c4ccccc34)ccn2)ccc1C(=O)NCCN1CCSCC1 [17(l), 4-[[4-[[4-[[5-tert-butyl-3-(methanesulfonamido)-2-methoxy-phenyl]carbamoylamino]-1-naphthyl]oxy]-2-pyridyl]amino]-2-methoxy-N-(2-thiomorpholinoethyl)benzamide] |
| 3.32 µM | COc1cc(Nc2cc(Oc3ccc(NC(=O)Nc4cc(C(C)(C)C)cc(NS(C)(=O)=O)c4OC)c4ccccc34)ccn2)ccc1S(=O)(=O)N(C)CCN1CCOCC1 [17(o), 1-[5-tert-butyl-3-(methanesulfonamido)-2-methoxy-phenyl]-3-[4-[[2-[3-methoxy-4-[methyl(2-morpholinoethyl)sulfamoyl]anilino]-4-pyridyl]oxy]-1-naphthyl]urea] |
| 0.394 µM | COc1cc(Nc2cc(Oc3ccc(NC(=O)Nc4cc(C(C)(C)C)cc(NS(C)(=O)=O)c4OC)c4ccccc34)ccn2)ccc1C(=O)NCCCCC(=O)O [17(s), 5-[[4-[[4-[[4-[[5-tert-butyl-3-(methanesulfonamido)-2-methoxy-phenyl]carbamoylamino]-1-naphthyl]oxy]-2-pyridyl]amino]-2-methoxy-benzoyl]amino]pentanoic acid] |
| 3.63 µM | COc1cc(Nc2cc(Oc3ccc(NC(=O)Nc4cc(C(C)(C)C)cc(NS(C)(=O)=O)c4OC)c4ccccc34)ccn2)ccc1S(=O)(=O)N(C)CCCN1CCOCC1 [Example 13, 1-[5-tert-Butyl-3-(methanesulfonamido)-2-methoxy-phenyl]-3-[4-[[2-[3-methoxy-4-[methyl(3-morpholinopropyl)sulfamoyl]anilino]-4-pyridyl]oxy]-1-naphthyl]urea] |
| 2.77 µM | COc1cc(Nc2cc(Oc3ccc(NC(=O)Nc4cc(C(C)(C)C)cc(NS(C)(=O)=O)c4OC)c4ccccc34)ccn2)ccc1C(=O)NCCN1CCC(O)CC1 [17(m), 4-[[4-[[4-[[5-tert-butyl-3-(methanesulfonamido)-2-methoxy-phenyl]carbamoylamino]-1-naphthyl]oxy]-2-pyridyl]amino]-N-[2-(4-hydroxy-1-piperidyl)ethyl]-2-methoxy-benzamide] |
| > 11.9 µM | COc1cc(Nc2cc(Oc3ccc(NC(=O)Nc4cc(C(C)(C)C)cc(NS(C)(=O)=O)c4OC)c4ccccc34)ccn2)ccc1C(=O)NCCN1CCOCC1(C)C [17(k), 4-[[4-[[4-[[5-tert-butyl-3-(methanesulfonamido)-2-methoxy-phenyl]carbamoylamino]-1-naphthyl]oxy]-2-pyridyl]amino]-N-[2-(3,3-dimethylmorpholin-4-yl)ethyl]-2-methoxy-benzamide] |
| 1.9 µM | COCCOCCOCCNC(=O)c1ccc(Nc2cc(Oc3ccc(NC(=O)Nc4cc(C(C)(C)C)cc(C(N)=O)c4OC)c4ccccc34)ccn2)cc1OC [Example 6, 4-((4-((4-(3-(5-(tert-Butyl)-3-carbamoyl-2-methoxyphenyl)ureido)naphthalen-1-yl)oxy)pyridin-2-yl)amino)-2-methoxy-N-(2-(2-(2-methoxyethoxy)ethoxy)ethyl)benzamide] |
| 2.02 µM | COc1cc(Nc2cc(Oc3ccc(NC(=O)Nc4cc(C(C)(C)C)cc(C(N)=O)c4OC)c4ccccc34)ccn2)ccc1C(=O)NCCN1CCOCC1 [Example 4, 4-((4-((4-(3-(5-(tert-Butyl)-3-carbamoyl-2-methoxyphenyl)ureido)naphthalen-1-yl)oxy)pyridin-2-yl)amino)-2-methoxy-N-(2-morpholinoethyl)benzamide] |
| 3.77 µM | COCCOCCOCCOc1ccc(Nc2cc(Oc3ccc(NC(=O)Nc4cc(C(C)(C)C)cc(NS(C)(=O)=O)c4OC)c4ccccc34)ccn2)cc1C#N [Example 8, N-(5-(tert-Butyl)-3-(3-(4-((2-((3-cyano-4-(2-(2-(2-methoxyethoxy)ethoxy)ethoxy)phenyl)amino)pyridin-4-yl)oxy)naphthalen-1-yl)ureido)-2-methoxyphenyl)methanesulfonamide] |
| 1.98 µM | COc1cc(Nc2cc(Oc3ccc(NC(=O)Nc4cc(C(C)(C)C)cc(NS(C)(=O)=O)c4OC)c4ccccc34)ccn2)ccc1C(=O)NCCN1CCCC1 [17(q), 4-[[4-[[4-[[5-tert-butyl-3-(methanesulfonamido)-2-methoxy-phenyl]carbamoylamino]-1-naphthyl]oxy]-2-pyridyl]amino]-2-methoxy-N-(2-pyrrolidin-1-ylethyl)benzamide] |
| 4.04 µM | COc1cc(Nc2cc(Oc3ccc(NC(=O)Nc4cc(C(C)(C)C)cc(NS(C)(=O)=O)c4OC)c4ccccc34)ccn2)ccc1C(=O)NCCN1CCS(=O)(=O)CC1 [17(r), 4-[[4-[[4-[[5-tert-butyl-3-(methanesulfonamido)-2-methoxy-phenyl]carbamoylamino]-1-naphthyl]oxy]-2-pyridyl]amino]-N-[2-(1,1-dioxo-1,4-thiazinan-4-yl)ethyl]-2-methoxy-benzamide] |
| 7.42 µM | COc1cc(Nc2cc(Oc3ccc(NC(=O)Nc4cc(C(C)(C)C)cc(NS(C)(=O)=O)c4OC)c4ccccc34)ccn2)ccc1C(=O)NCC(=O)N1CCOCC1 [17(e), 4-[[4-[[4-[[5-tert-butyl-3-(methanesulfonamido)-2-methoxy-phenyl]carbamoylamino]-1-naphthyl]oxy]-2-pyridyl]amino]-2-methoxy-N-(2-morpholino-2-oxo-ethyl)benzamide] |
| 2.64 µM | COc1cc(Nc2cc(Oc3ccc(NC(=O)Nc4cc(C(C)(C)C)cc(NS(C)(=O)=O)c4OC)c4ccccc34)ccn2)ccc1C(=O)NCCCN1CCCOCC1 [17(aj), 4-[[4-[[4-[[5-tert-butyl-3-(methanesulfonamido)-2-methoxy-phenyl]carbamoylamino]-1-naphthyl]oxy]-2-pyridyl]amino]-2-methoxy-N-[3-(1,4-oxazepan-4-yl)propyl]benzamide] |

— patent US9751837B2, “Kinase inhibitors” (RESPIVERT LIMITED, priority 2014, dated 2017)
